Measurements: US12440440B2, “Dry powder esketamine composition for use in the treatment of bipolar depression by pulmonary administration” (Novohale Therapeutics, LLC, priority 2017, dated 2025)
Structures can show the parent of a compound that is named as a salt.

Legend:
[1] = cited from earlier work
[2] = in vivo; cited from earlier work
[3] = cited from earlier work; remark: listed apart in the source
[4] = nebulized saline solution, inhalation; cited from earlier work
[5] = 40-minute i.v. infusion of 0.20 mg/kg or 0.40 mg/kg, TRD patients; cited from earlier work
[6] = Predicted esketamine plasma concentration for 0.20 mg/kg 40 minutes intravenous infusion; format: in vivo; conditions: human, 0.2 mg/kg, predicted on the basis of literature data
Method: The aim of the study was to determine the amount of puffs needed to obtain plasma concentration similar to that sufficient to achieve antidepressant effect as for 0.20 mg/kg 40 minutes intravenous infusion. It can be predicted on the basis of literature data that this corresponds to concentration at 40 min of infusion between about 60 to 100 ng/ml. It was also the aim to determine the number of puffs that allow to avoid a sharp peak of plasma concentration that is considered an important factor inducing adverse psychomimetic and dissociative effects.

NMDA receptor = conditions: cited from earlier work
[7] = i.v. infusion of racemic ketamine
[8] = oral administration of ketamine

SMILES: CNC1(c2ccccc2Cl)CCCCC1=O (racemic) [ketamine]
- half-period of concentration fall ([1]; after i.v. infusion 0.5 mg/kg for 40 minutes): below 2 hours
- systemic concentration of parent drug ([1]; i.v. infusion 0.5 mg/kg for 40 minutes, maintained for about 40 minutes): about 200 ng/ml
- proportion of patients with treatment-resistant depression responsive to treatment [2]: about ⅔
- bioavailability ([3]; orally administered): 16-20%

SMILES: CN[C@]1(c2ccccc2Cl)CCCCC1=O [esketamine hydrochloride]
- inhaled bioavailability [4]: reduced

SMILES: CN[C@]1(c2ccccc2Cl)CCCCC1=O [esketamine]
- antidepressant effects [5]: rapid onset of robust antidepressant effects
- concentration at 40 min [6]: 60 to 100 ng/mL

SMILES: NC1(c2ccccc2Cl)CCCCC1=O (stereo not drawn) [norketamine]
- maximum concentration as level of ketamine concentration [1, 7]: 10-20%
- percentage of AUC norketamine to ketamine [1, 7]: 20-40%
- activity on NMDA receptor relative to ketamine (NMDA receptor): many times less active than ketamine
- AUC for norketamine relative to ketamine [3, 8]: exceeding 1000%
- norketamine level relative to ketamine level [3, 8]: 500-1000%
